Earlier results on 1 compound are cited in patent US20070207193A1, “Novel application of topical anesthetics for modulation of neurogenic tremor” (priority 2006, published 2007).

Structures are written as SMILES.

One data set deals with Parkinsonian tremor. Conditions: ten patients undergoing stereotactic thalamotomy.
The next data set concerns subthalamic nucleus. Conditions: applied centrally in the subcortical areas of the brain.

On to `CCN(CC)CC(=O)Nc1c(C)cccc1C` [lidocaine], for which the “cases in which microinjection replicated the effects of microstimulation” value in the data set on Parkinsonian tremor was “⅔”. Besides, the effect on tremor entry with subthalamic nucleus is recorded as “ameliorated tremor”.
